Here are results for 8 molecules from patent US20210395248A1, “INHIBITORS OF HUMAN IMMUNODEFICIENCY VIRUS REPLICATION” (ViiV HEALTHCARE UK (NO.5) LIMITED, priority 2018, published 2021).

Molecules are shown by their SMILES. Where only a bound is given, the exact number is not on record here.

Data set [1] has as its system recombinant NL4-3 virus (Renilla luciferase reporter) in MT-2 cells. The data set can be described thus: HIV cell culture assay (antiviral activity, luciferase readout in infected MT-2 cells). In kind it is cell-based. Conditions: NL43.
Data set [2] can be described thus: Compound cytotoxicity, XTT-based colorimetric assay. Type of data set: cell-based. Conditions: human; uninfected MT2 cells, day 4, XTT; read-out: CC50. The protocol: Compound cytotoxicity and the corresponding CC50 values were determined using the same protocol as described in the antiviral assay except that uninfected cells were used. Cytotoxicity was assessed on day 4 in uninfected MT2 cells by using a XTT (2,3-bis [2-Methoxy-4-nitro-5-sulfophenyl]-2H-tetrazolium-5-carboxyanilide inner salt)-based colorimetric assay (Sigma-Aldrich, St Louis, Mo.).
(In general: Tetrazolium assays rely on reduction of a dye to a coloured formazan, in cell work by metabolically active cells.)

`Cn1nc(NS(C)(=O)=O)c2c(Cl)ccc(-n3c([C@H](Cc4cc(F)cc(F)c4)NC(=O)Cn4nc(C(F)F)c5c4C(F)(F)[C@@H]4C[C@H]54)nc4nc(N5CCCOCC5)ccc4c3=O)c21` (atropisomer, axis not shown; (P)) [Example 22, N—((S)-1-((3P)-3-(4-chloro-1-methyl-3-(methylsulfonamido)-1H-indazol-7-yl)-7-(1,4-oxazepan-4-yl)-4-oxo-3,4-dihydropyrido[2,3-d]pyrimidin-2-yl)-2-(3,5-difluorophenyl)ethyl)-2-((3bS,4aR)-3-(difluoromethyl)-5,5-difluoro-3b,4,4a,5-tetrahydro-1H-cyclopropa[3,4]cyclopenta[1,2-c]pyrazol-1-yl)acetamide]: in data set [1], the EC50 (commonly the concentration giving half of the maximal effect) came out at 0.052 nM. Further, the CC50 (usually the concentration that lowers cell viability or growth by half) at 4 days in data set [2] was above 100 nM.

Regarding `C[C@@H]1CN(c2ccc3c(=O)n(-c4ccc(Cl)c5c(NS(=O)(=O)C6CC6)nn(CC(F)F)c45)c([C@H](Cc4cc(F)cc(F)c4)NC(=O)Cn4nc(C(F)(F)F)c5c4C(F)(F)[C@@H]4C[C@H]54)nc3n2)C[C@H](C)O1` (atropisomer, axis not shown; (aR)) [Example 6, N—((S)-1-(3-(4-chloro-3-(cyclopropanesulfonamido)-1-(2,2-difluoroethyl)-1H-indazol-7-yl)-7-((2S,6R)-2,6-dimethylmorpholino)-4-oxo-3,4-dihydropyrido[2,3-d]pyrimidin-2-yl)-2-(3,5-difluorophenyl)ethyl)-2-((3bS,4aR)-5,5-difluoro-3-(trifluoromethyl)-3b,4,4a,5-tetrahydro-1H-cyclopropa[3,4]cyclopenta[1,2-c]pyrazol-1-yl)acetamide], the concentration giving a half-maximal response (EC50) in data set [1] was determined as 0.04 nM. Also, the CC50 at 4 days in data set [2] was above 500 nM.

With `C[C@@H]1CN(c2ccc3c(=O)n(-c4ccc(Cl)c5c(NS(C)(=O)=O)nn(CC(F)(F)F)c45)c([C@H](Cc4cc(F)cc(F)c4)NC(=O)Cn4nc(C(F)F)c5c4C(F)(F)[C@@H]4C[C@H]54)nc3n2)C[C@H](C)O1` (atropisomer, axis not shown; (aR)) [Example 7, N—((S)-1-(3-(4-chloro-3-(methylsulfonamido)-1-(2,2,2-trifluoroethyl)-1H-indazol-7-yl)-7-((2S,6R)-2,6-dimethylmorpholino)-4-oxo-3,4-dihydropyrido[2,3-d]pyrimidin-2-yl)-2-(3,5-difluorophenyl)ethyl)-2-((3bS,4aR)-3-(difluoromethyl)-5,5-difluoro-3b,4,4a,5-tetrahydro-1H-cyclopropa[3,4]cyclopenta[1,2-c]pyrazol-1-yl)acetamide], the concentration giving a half-maximal response (EC50) in data set [1] came out at 0.028 nM. Also, the 50% cytotoxic concentration (CC50) at 4 days in data set [2] was above 500 nM.

`CC(C)n1ccc(CC(=O)N[C@@H](Cc2cc(F)cc(F)c2)c2nc3nc(N4C[C@@H](C)O[C@@H](C)C4)ccc3c(=O)n2-c2ccc(Cl)c3c(NS(C)(=O)=O)nn(C)c23)n1` (atropisomer, axis not shown; (P)) [Example 18, N—((S)-1-((3P)-3-(4-chloro-1-methyl-3-(methylsulfonamido)-1H-indazol-7-yl)-7-((2S,6R)-2,6-dimethylmorpholino)-4-oxo-3,4-dihydropyrido[2,3-d]pyrimidin-2-yl)-2-(3,5-difluorophenyl)ethyl)-2-(1-isopropyl-1H-pyrazol-3-yl)acetamide]: the EC50 in data set [1] was 0.16 nM. In data set [2], the CC50 at 4 days was above 100 nM.

Turning to `Cn1nc(NS(C)(=O)=O)c2c(Cl)ccc(-n3c([C@H](Cc4cc(F)cc(F)c4)NC(=O)Cn4nc(C(F)F)c5c4C(F)(F)[C@@H]4C[C@H]54)nc4nc(N(CCC(F)(F)F)CC5CC5)ccc4c3=O)c21` (atropisomer, axis not shown; (P)) [Example 14, N—((S)-1-((3P)-3-(4-chloro-1-methyl-3-(methylsulfonamido)-1H-indazol-7-yl)-7-((cyclopropylmethyl)(3,3,3-trifluoropropyl)amino)-4-oxo-3,4-dihydropyrido[2,3-d]pyrimidin-2-yl)-2-(3,5-difluorophenyl)ethyl)-2-((3bS,4aR)-3-(difluoromethyl)-5,5-difluoro-3b,4,4a,5-tetrahydro-1H-cyclopropa[3,4]cyclopenta[1,2-c]pyrazol-1-yl)acetamide], the EC50 in data set [1] was 0.11 nM. Moreover, the CC50 at 4 days in data set [2] was above 100 nM.

`Cn1nc(NS(C)(=O)=O)c2c(Cl)ccc(-n3c([C@H](Cc4cc(F)cc(F)c4)NC(=O)Cn4nc(C(F)F)c5c4C(F)(F)[C@@H]4C[C@H]54)nc4nc(NCCC(F)(F)F)ccc4c3=O)c21` (atropisomer, axis not shown; (P)) [Example 32, N—((S)-1-((3P)-3-(4-chloro-1-methyl-3-(methylsulfonamido)-1H-indazol-7-yl)-4-oxo-7-((3,3,3-trifluoropropyl)amino)-3,4-dihydropyrido[2,3-d]pyrimidin-2-yl)-2-(3,5-difluorophenyl)ethyl)-2-((3bS,4aR)-3-(difluoromethyl)-5,5-difluoro-3b,4,4a,5-tetrahydro-1H-cyclopropa[3,4]cyclopenta[1,2-c]pyrazol-1-yl)acetamide]: the EC50 in data set [1] amounted to 0.042 nM. In addition, the CC50 at 4 days in data set [2] was above 100 nM.

`Cn1nc(NS(C)(=O)=O)c2c(Cl)ccc(-n3c([C@H](Cc4cc(F)cc(F)c4)NC(=O)Cn4nc(C(F)F)c5c4C(F)(F)[C@@H]4C[C@H]54)nc4nc(N5CCO[C@@H](C(F)(F)F)C5)ccc4c3=O)c21` (atropisomer, axis not shown; (P)) [Example 12, N—((S)-1-((3P)-3-(4-chloro-1-methyl-3-(methylsulfonamido)-1H-indazol-7-yl)-4-oxo-7-((R)-2-(trifluoromethyl)morpholino)-3,4-dihydropyrido[2,3-d]pyrimidin-2-yl)-2-(3,5-difluorophenyl)ethyl)-2-((3bS,4aR)-3-(difluoromethyl)-5,5-difluoro-3b,4,4a,5-tetrahydro-1H-cyclopropa[3,4]cyclopenta[1,2-c]pyrazol-1-yl)acetamide]: the concentration for a half-maximal effect (EC50) in data set [1] was found to be 0.02 nM. In addition, the cytotoxic concentration (CC50) at 4 days in data set [2] was above 100 nM.

For the molecule `Cn1nc(NS(C)(=O)=O)c2c(Cl)ccc(-n3c([C@H](Cc4cc(F)cc(F)c4)NC(=O)Cn4nc(C(F)F)c5c4C(F)(F)[C@@H]4C[C@H]54)nc4nc(NCCCC(F)(F)F)ccc4c3=O)c21` (atropisomer, axis not shown; (P)) [Example 31, N—((S)-1-((3P)-3-(4-chloro-1-methyl-3-(methylsulfonamido)-1H-indazol-7-yl)-4-oxo-7-((4,4,4-trifluorobutyl)amino)-3,4-dihydropyrido[2,3-d]pyrimidin-2-yl)-2-(3,5-difluorophenyl)ethyl)-2-((3bS,4aR)-3-(difluoromethyl)-5,5-difluoro-3b,4,4a,5-tetrahydro-1H-cyclopropa[3,4]cyclopenta[1,2-c]pyrazol-1-yl)acetamide], the EC50 in data set [1] worked out at 0.11 nM. Besides, the CC50 at 4 days in data set [2] was above 100 nM.
